Assay results: US10899709B2, “Novel-alkynyl-substituted 3-phenylpyrrolidine-2,4-diones and use thereof as herbicides” (BAYER CROPSCIENCE AKTIENGESELLSCHAFT, priority 2015, dated 2021)

What was measured:
Format in all cases: in vivo
Echinochloa crus-galli [1] = assay: Pre-emergence herbicidal effect; conditions: visual score after 3 weeks
Description: (§1) Seeds of monocotyledonous and dicotyledonous weed plants and crop plants are laid out in wood-fibre pots in sandy loam and covered with soil. The compounds according to the invention formulated in the form of wettable powders (WP) or as emulsion concentrates (EC) are then applied as aqueous suspension or emulsion at a water application rate of 600 to 800 l/ha (converted) with the addition of 0.2% wetting agent to the surface of the covering soil. After the treatment, the pots are placed in a greenhouse and kept under good growth conditions for the trial plants. The damage to the test plants is scored visually after a test period of 3 weeks by comparison with untreated controls (herbicidal activity in percent (%): 100% activity=the plants have died, 0% activity=like control plants).

Veronica persica [2] = assay: Pre-emergence herbicidal effect; conditions: 320 g/ha, visual score after 3 weeks
Description: as §1

Alopecurus myosuroides [3] = assay: Pre-emergence herbicidal effect; conditions: visual score after 3 weeks
Description: as §1

Lolium multiflorum [4] = assay: Pre-emergence herbicidal effect; conditions: visual score after 3 weeks
Description: as §1

Viola tricolor = assay: Pre-emergence herbicidal effect; conditions: 320 g/ha, visual score after 3 weeks
Description: as §1

Setaria viridis [5] = assay: Pre-emergence herbicidal effect; conditions: for Pre-emergence effectiveness SETVI: visual score after 3 weeks
Description: as §1

Cyperus esculentus = assay: Pre-emergence herbicidal effect; conditions: for Pre-emergence effectiveness CYPES: visual score after 3 weeks
Description: as §1

Avena fatua [6] = assay: Pre-emergence herbicidal effect; conditions: for Pre-emergence effectiveness AVEFA: visual score after 3 weeks
Description: as §1

Echinochloa crus-galli [7] = assay: Post-emergence herbicidal effect; conditions: visual assessment after about 3 weeks
Description: (§2) Seeds of monocotyledonous and dicotyledonous weed and crop plants are laid out in sandy loam in wood-fibre pots, covered with soil and cultivated in a greenhouse under good growth conditions. 2 to 3 weeks after sowing, the test plants are treated at the one-leaf stage. The compounds according to the invention, formulated in the form of wettable powders (WP) or as emulsion concentrates (EC), are then sprayed as aqueous suspension or emulsion at a water application rate of 600 to 800 l/ha (converted) with the addition of 0.2% of wetting agent onto the green parts of the plants. After the test plants have been left to stand in the greenhouse under optimal growth conditions for about 3 weeks, the action of the preparations is assessed visually in comparison to untreated controls (herbicidal action in percent (%): 100% activity=the plants have died, 0% activity=like control plants).

Avena fatua [8] = assay: Post-emergence herbicidal effect; conditions: for Post-emergence effectiveness AVEFA: visual assessment after about 3 weeks; for Comparison data for post-emergence effect AVEFA: 20 g a.i./ha
Description: as §2

Alopecurus myosuroides [9] = assay: Post-emergence herbicidal effect; conditions: for Post-emergence effectiveness ALOMY: visual assessment after about 3 weeks; for Comparison data for post-emergence effect ALOMY: 20 g a.i./ha
Description: as §2

Lolium multiflorum [10] = assay: Post-emergence herbicidal effect; conditions: visual assessment after about 3 weeks
Description: as §2

Setaria viridis [11] = assay: Post-emergence herbicidal effect; conditions: visual assessment after about 3 weeks
Description: as §2

Polygonum convolvulus = assay: Post-emergence herbicidal effect; conditions: 80 g/ha, visual assessment after about 3 weeks
Description: as §2

PHBPU = assay: Post-emergence herbicidal effect; conditions: 20 g a.i./ha
Description: as §2

Veronica persica [12] = assay: Post-emergence herbicidal effect; conditions: 80 g/ha, visual assessment after about 3 weeks
Description: as §2

Amaranthus retroflexus = assay: Pre-emergence herbicidal effect; conditions: 320 g/ha, visual score after 3 weeks
Description: as §1

| Structure (SMILES) | Pre-emergence effectiveness ECHCG (Echinochloa crus-galli [1]; 80 g/ha) [%] | Pre-emergence effectiveness ECHCG (Echinochloa crus-galli [1]; 320 g/ha) [%] | Pre-emergence effectiveness VERPE (Veronica persica [2]) [%] | Pre-emergence effectiveness ALOMY (Alopecurus myosuroides [3]; 320 g/ha) [%] | Pre-emergence effectiveness LOLMU (Lolium multiflorum [4]; 320 g/ha) [%] | Pre-emergence effectiveness SETVI (Setaria viridis [5]; 80 g/ha) [%] | Pre-emergence effectiveness SETVI (Setaria viridis [5]; 320 g/ha) [%] | Pre-emergence effectiveness AVEFA (Avena fatua [6]; 320 g/ha) [%] | Pre-emergence effectiveness ALOMY (Alopecurus myosuroides [3]; 80 g/ha) [%] | Pre-emergence effectiveness LOLMU (Lolium multiflorum [4]; 80 g/ha) [%] | Post-emergence effectiveness ECHCG (Echinochloa crus-galli [7]; 20 g/ha) [%] | Post-emergence effectiveness ECHCG (Echinochloa crus-galli [7]; 80 g/ha) [%] | Post-emergence effectiveness AVEFA (Avena fatua [8]; 80 g/ha) [%] | Post-emergence effectiveness ALOMY (Alopecurus myosuroides [9]; 20 g/ha) [%] | Post-emergence effectiveness ALOMY (Alopecurus myosuroides [9]; 80 g/ha) [%] | Post-emergence effectiveness LOLMU (Lolium multiflorum [10]; 20 g/ha) [%] | Post-emergence effectiveness LOLMU (Lolium multiflorum [10]; 80 g/ha) [%] | Post-emergence effectiveness SETVI (Setaria viridis [11]; 20 g/ha) [%] | Post-emergence effectiveness SETVI (Setaria viridis [11]; 80 g/ha) [%] | Pre-emergence effectiveness AVEFA (Avena fatua [6]; 80 g/ha) [%] | further results |
| --- | --- | --- | --- | --- | --- | --- | --- | --- | --- | --- | --- | --- | --- | --- | --- | --- | --- | --- | --- | --- | --- |
| CC#Cc1cc(C)c(C2=C(OC(=O)C(C)C)C3(CCC(CCOC)CC3)NC2=O)c(CC)c1 (stereo not shown) [Ia-4] | 100 | 100 | 90 | 80 | 90 | 100 | 100 |  |  |  |  |  |  |  |  |  |  |  |  |  | Pre-emergence effectiveness VIOTR (Viola tricolor): 100% |
| CCc1cc(C#CC2CC2)cc(C)c1C1=C(O)C2(CCC(COC)C2)NC1=O (stereo not shown) [Example I-11] | 100 | 100 | 80 | 100 | 100 | 90 | 100 | 80 | 100 | 100 | 100 | 100 | 100 | 80 | 100 | 90 | 100 | 100 | 100 |  | Pre-emergence effectiveness CYPES (Cyperus esculentus; 320 g/ha): 100%; Post-emergence effectiveness AVEFA (Avena fatua [8]; 20 g/ha): 80% |
| CCc1cc(C#CC2CC2)cc(C)c1C1=C(O)C2(CCC(COC)CC2)NC1=O (stereo not shown) [Example I-7] | 100 | 100 |  | 100 | 100 | 90 | 100 |  | 80 | 100 | 100 | 100 | 100 | 90 | 100 | 90 | 100 | 100 | 100 |  | Post-emergence effectiveness POLCO (Polygonum convolvulus): 80% |
| CC#Cc1cc(C)c(C2=C(OC(=O)OCC)C3(CCC(OC)CC3)NC2=O)c(CC)c1 (stereo not shown) [WO 2015/040114, reference compound] |  |  |  |  |  |  |  |  |  |  |  |  |  |  |  |  |  |  |  |  | Comparison data for pre-emergence effectiveness CYPES (Cyperus esculentus; 20 g a.i./ha): 0%; Comparison data for pre-emergence effectiveness AVEFA (Avena fatua [6]; 20 g a.i./ha): 50%; Comparison data for pre-emergence effectiveness SETVI (Setaria viridis [5]; 20 g a.i./ha): 80%; Comparison data for post-emergence effect PHBPU (PHBPU): 0%; Comparison data for post-emergence effect AVEFA (Avena fatua [8]): 70%; Comparison data for post-emergence effect ALOMY (Alopecurus myosuroides [9]): 80% |
| CC#Cc1cc(C)c(C2=C(OC(=O)C(C)C)C3(CCC(COC)CC3)NC2=O)c(CC)c1 (stereo not shown) [Ia-3] | 100 | 100 | 90 | 100 | 100 | 100 | 100 | 90 | 90 | 100 | 90 | 100 |  | 90 | 100 |  | 100 | 90 | 100 | 80 | Post-emergence action VERPE (Veronica persica [12]): 90% |
| CC#Cc1cc(C)c(C2=C(O)C3(CCC(CCOC)CC3)NC2=O)c(CC)c1 (stereo not shown) [Example I-2] | 100 | 100 | 100 | 100 | 100 | 100 | 100 | 100 | 100 | 100 | 100 | 100 | 100 | 90 | 100 | 90 | 100 | 100 | 100 | 80 | Pre-emergence effectiveness CYPES (Cyperus esculentus; 320 g/ha): 100%; Post-emergence effectiveness AVEFA (Avena fatua [8]; 20 g/ha): 90% |
| CC#Cc1cc(CC)c(C2=C(OC(=O)C(C)C)C3(CCC(CCOC)CC3)NC2=O)c(CC)c1 (stereo not shown) [Example Ia-5] | 100 | 100 | 100 | 100 | 100 | 100 | 100 | 100 | 100 | 100 |  |  |  |  |  |  |  |  |  | 80 | Pre-emergence effectiveness CYPES (Cyperus esculentus; 80 g/ha): 100%; Pre-emergence effectiveness CYPES (Cyperus esculentus; 320 g/ha): 100%; Pre-emergence effectiveness AMARE (Amaranthus retroflexus): 100% |
| CCOC(=O)OC1=C(c2c(C)cc(C#CC3CC3)cc2CC)C(=O)N[C@]12CC[C@H](COC)C2 [Example Ia-1] | 100 | 100 | 90 | 100 | 100 | 100 | 100 | 90 | 90 | 100 | 90 | 100 |  |  | 80 |  |  |  | 90 | 80 |  |
| CC#Cc1cc(C)c(C2=C(O)C3(CCC(COC)CC3)NC2=O)c(CC)c1 (stereo not shown) [Example I-5] | 100 | 100 | 80 | 100 | 100 | 100 | 100 | 100 | 100 | 100 | 100 | 100 | 100 | 90 | 100 | 90 | 100 | 90 | 100 | 100 | Pre-emergence effectiveness CYPES (Cyperus esculentus; 320 g/ha): 100%; Comparison data for post-emergence effect PHBPU (PHBPU): 30%; Comparison data for post-emergence effect AVEFA (Avena fatua [8]): 90%; Post-emergence effectiveness AVEFA (Avena fatua [8]; 20 g/ha): 90%; Comparison data for post-emergence effect ALOMY (Alopecurus myosuroides [9]): 90% |
| COCC1CCC2(CC1)NC(=O)C(c1c(C)cc(C#CC3CC3)cc1C)=C2O (stereo not shown) [Example I-8] | 100 | 100 | 90 | 100 | 100 | 80 | 90 |  | 90 | 90 | 100 | 100 | 80 | 90 | 100 | 90 | 90 | 100 | 100 |  |  |
